{"source": "patent EP1022029A1", "about": "“NOOTROPIC AGENT” (priority 1997, dated 1999)", "key": {"α4β2 receptor": {"molecular_target": "T1, α4β2 receptor (Rattus norvegicus, UniProt P09483+P12390)", "T1 construct": "expressed in transfected cells; host or cells: Xenopus oocytes injected with in vitro transcribed mRNA", "T1 sequence (P09483 31-630)": "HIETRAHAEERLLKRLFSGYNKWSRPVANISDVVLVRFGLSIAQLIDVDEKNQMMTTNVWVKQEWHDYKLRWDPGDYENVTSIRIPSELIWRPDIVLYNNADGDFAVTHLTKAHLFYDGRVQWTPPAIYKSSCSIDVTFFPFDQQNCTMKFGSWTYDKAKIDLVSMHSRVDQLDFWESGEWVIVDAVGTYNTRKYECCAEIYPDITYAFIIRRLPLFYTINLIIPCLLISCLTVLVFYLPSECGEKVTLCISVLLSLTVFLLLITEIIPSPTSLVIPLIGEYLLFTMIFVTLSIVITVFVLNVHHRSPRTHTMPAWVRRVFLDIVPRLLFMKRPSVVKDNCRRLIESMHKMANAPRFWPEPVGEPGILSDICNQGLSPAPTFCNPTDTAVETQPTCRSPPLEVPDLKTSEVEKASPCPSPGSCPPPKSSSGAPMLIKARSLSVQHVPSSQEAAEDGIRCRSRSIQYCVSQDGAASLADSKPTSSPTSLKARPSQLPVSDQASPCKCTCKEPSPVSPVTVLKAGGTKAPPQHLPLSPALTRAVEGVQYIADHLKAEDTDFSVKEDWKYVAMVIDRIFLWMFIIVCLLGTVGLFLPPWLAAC", "T1 sequence (P12390 25-500)": "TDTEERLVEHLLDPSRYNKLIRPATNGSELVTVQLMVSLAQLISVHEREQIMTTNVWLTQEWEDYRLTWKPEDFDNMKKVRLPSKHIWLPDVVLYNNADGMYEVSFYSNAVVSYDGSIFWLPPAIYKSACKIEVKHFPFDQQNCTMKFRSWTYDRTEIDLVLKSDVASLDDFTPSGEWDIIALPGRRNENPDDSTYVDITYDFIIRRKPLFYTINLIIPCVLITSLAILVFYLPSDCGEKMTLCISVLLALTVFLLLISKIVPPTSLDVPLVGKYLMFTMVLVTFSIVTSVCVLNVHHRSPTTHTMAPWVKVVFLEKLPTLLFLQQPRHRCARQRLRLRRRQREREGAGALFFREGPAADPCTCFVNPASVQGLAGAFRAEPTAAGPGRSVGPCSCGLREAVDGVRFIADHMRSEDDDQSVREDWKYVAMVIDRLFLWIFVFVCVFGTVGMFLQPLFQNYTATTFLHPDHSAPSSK", "assay": "ACh-evoked currents in α4β2 receptors expressed in Xenopus oocytes (two-electrode voltage clamp)", "type": "cell-based", "details": "for % of the original amplitude (Ach-evoked current): treatment as labelled, nefiracetam 1 µM, GF109203X 100 nM, peptides co-expressed, Mean ± SD, n = 6 to 8; for normalized response (%): nef(-), n=5", "description": "Two-electrode voltage-clamp technique was used to record expression α4β2 or α7 receptors in oocytes. ACh (100 µM) was applied to a single oocyte in the presence or absence of α-BuTX (50 nM) or MCA (3 µM). The holding voltage was -30 or -60 mV for α4β2-nAChR or α7-nAChR, respectively. Downward directions correspond to inward currents.\n(§1) mRNAs for the rat α4β2 receptor and α7 receptor, GLUR1, 2, 3 receptors, and NP152 and NP153 were constructed as described previously. Xenopus oocytes were manually separated from the ovary, and subjected to treatment with collagenase (0.5 mg/ml). Thereafter, the treated oocytes were incubated overnight in Barth's solution (in mM, 88 NaCl, 1 KCl, 2.4 NaHCO3, 0.82 MgSO4, 0.33 […], 0.41 CaCl2, and 7.5 Tris; pH 7.6). The oocytes were injected with the α4β2 or α7 receptor mRNA and incubated at 18°C. In some cases, NP152 and NP153 were co-expressed with the α4β2 and α7 receptors. The injected oocytes were incubated and transferred to a recording chamber 2-7 days after incubation and continuously superfused at room temperature (20-22°C) with a standard frog Ringer's solution [in mM: 115 NaCl, 2 KCl, 1.8 CaCl2, 5 HEPES; pH 7.0]. To remove the effect of endogenous muscarinic ACh receptor, 1 µM atropine was added to the extracellular solution. ACh-evoked currents were recorded by use of two-electrode voltage clamp techniques and an amplifier (GeneClamp-500, Axon Instrument, Inc. USA). The currents were analyzed on a microcomputer by pClamp software (Axon Instrument, Inc.; Version 6). From the results, an assessment was made as to whether nefiracetam actually acts on the nACh receptors."}, "α7 receptor": {"molecular_target": "T2, α7 receptor (Rattus norvegicus, UniProt Q05941)", "T2 construct": "expressed in transfected cells; host or cells: Xenopus oocytes injected with in vitro transcribed mRNA", "T2 sequence (Q05941 23-502)": "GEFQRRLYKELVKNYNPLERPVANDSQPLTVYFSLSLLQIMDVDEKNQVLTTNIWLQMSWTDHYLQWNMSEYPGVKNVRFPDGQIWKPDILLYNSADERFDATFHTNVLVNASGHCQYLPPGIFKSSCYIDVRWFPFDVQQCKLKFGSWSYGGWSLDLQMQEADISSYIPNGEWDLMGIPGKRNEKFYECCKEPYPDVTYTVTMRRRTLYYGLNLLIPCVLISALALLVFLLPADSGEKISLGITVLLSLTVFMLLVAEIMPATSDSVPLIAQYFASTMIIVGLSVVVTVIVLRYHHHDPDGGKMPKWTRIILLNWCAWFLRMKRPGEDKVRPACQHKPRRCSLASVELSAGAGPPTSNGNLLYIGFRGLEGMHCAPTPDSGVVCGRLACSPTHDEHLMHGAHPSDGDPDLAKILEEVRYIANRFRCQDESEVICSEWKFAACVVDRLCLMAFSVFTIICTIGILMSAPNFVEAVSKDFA", "assay": "ACh-evoked currents in α7 receptors expressed in Xenopus oocytes (two-electrode voltage clamp)", "type": "cell-based", "details": "for % of the original amplitude (Ach-evoked current): treatment as labelled, nefiracetam 1 µM, GF109203X 100 nM, peptides co-expressed, Mean ± SD, n = 6 to 8; for normalized response (%): nef(-), n=5", "description": "Two-electrode voltage-clamp technique was used to record expression α4β2 or α7 receptors in oocytes. […] The holding voltage was -30 or -60 mV for α4β2-nAChR or α7-nAChR, respectively. Downward directions correspond to inward currents.\nas §1"}, "[1]": {"tested_on": "postsynaptic potentials evoked from the hippocampal CA1 region", "assay": "Postsynaptic potentials recorded in the CA1 pyramidal cell layer of rat hippocampal slices", "type": "cell-based", "details": "Rattus norvegicus, APV 100 µM alone, -10 to -1 min before nefiracetam; Time (min) in c0; n=5; read-out: Postsynaptic potential (% of original amplitude)"}, "[2]": {"tested_on": "glutamate release from hippocampal slices", "type": "cell-based, guinea pig", "details": "St (ES+) electrical stimulation; nefiracetam 1 µM, tetrodotoxin 0.5 µM, α-bungarotoxin 50 nM, mecamylamine 3 µM"}}, "data": [{"molecule": "CN[C@@H]1C[C@H]2O[C@@](C)([C@@H]1OC)n1c3ccccc3c3c4c(c5c6ccccc6n2c5c31)C(=O)NC4", "note": "[Staurosporine, reference compound]", "values": [{"measurement": "% of the original amplitude (Ach-evoked current)", "setting": "α4β2 receptor", "result": "90 ± 8", "unit": "%"}, {"measurement": "% of the original amplitude (Ach-evoked current)", "setting": "α7 receptor", "result": "101 ± 8", "unit": "%"}]}, {"molecule": "CN(C)CCCn1cc(C2=C(c3c[nH]c4ccccc34)C(=O)NC2=O)c2ccccc21", "note": "[GF109203X, reference compound]", "values": [{"measurement": "% of the original amplitude (Ach-evoked current)", "setting": "α4β2 receptor", "result": "79.3 ± 15", "unit": "%"}, {"measurement": "% of the original amplitude (Ach-evoked current)", "setting": "α7 receptor", "result": "102.2 ± 9.6", "unit": "%"}]}, {"molecule": "Nc1nc2c(ncn2[C@@H]2O[C@H](COP(=O)(O)OP(O)(O)=S)[C@@H](O)[C@H]2O)c(=O)[nH]1", "note": "[GDPβS, reference compound]", "values": [{"measurement": "% of the original amplitude (Ach-evoked current)", "setting": "α4β2 receptor", "result": "96 ± 10", "unit": "%"}, {"measurement": "% of the original amplitude (Ach-evoked current)", "setting": "α7 receptor", "result": "100 ± 11", "unit": "%"}]}, {"molecule": "CC(=O)OCC[N+](C)(C)C", "note": "[ACh, reference compound]", "values": [{"measurement": "normalized response (%)", "setting": "α4β2 receptor; ACh 0.1 µM", "result": 0, "unit": "%"}, {"measurement": "normalized response (%)", "setting": "α4β2 receptor; ACh 1 µM", "result": 3, "unit": "%"}, {"measurement": "normalized response (%)", "setting": "α4β2 receptor; ACh 10 µM", "result": 43, "unit": "%"}, {"measurement": "normalized response (%)", "setting": "α4β2 receptor; ACh 100 µM", "result": 75, "unit": "%"}, {"measurement": "normalized response (%)", "setting": "α4β2 receptor; ACh 1000 µM", "result": 100, "unit": "%"}, {"measurement": "normalized response (%)", "setting": "α7 receptor; ACh 0.1 µM", "result": 0, "unit": "%"}, {"measurement": "normalized response (%)", "setting": "α7 receptor; ACh 1 µM", "result": 0.5, "unit": "%"}, {"measurement": "normalized response (%)", "setting": "α7 receptor; ACh 10 µM", "result": 1, "unit": "%"}, {"measurement": "normalized response (%)", "setting": "α7 receptor; ACh 100 µM", "result": 28, "unit": "%"}, {"measurement": "normalized response (%)", "setting": "α7 receptor; ACh 1000 µM", "result": 100, "unit": "%"}]}, {"molecule": "N[C@H](CCCP(=O)(O)O)C(=O)O", "note": "[APV, D-2-amino-5-phosphonovaleric acid, reference compound]", "values": [{"measurement": "activity at 100 µM", "setting": "[1]", "result": "87 ± 7", "unit": "%"}]}, {"molecule": "O=S(=O)(NCCNCC=Cc1ccc(Br)cc1)c1cccc2cnccc12", "note": "[H89, N-[2-(p-Bromocinnamylamino)ethyl]-5-isoquinolinesulfonamide · 2HCl, reference compound]", "values": [{"measurement": "% of the original amplitude (Ach-evoked current)", "setting": "α4β2 receptor", "result": "98.8 ± 12", "unit": "%"}, {"measurement": "% of the original amplitude (Ach-evoked current)", "setting": "α7 receptor", "result": "99.4 ± 5.8", "unit": "%"}]}, {"molecule": "CNC1(C)C2CCC(C2)C1(C)C", "note": "(stereo not drawn) [mecamylamine, reference compound]", "values": [{"measurement": "effect on ACh-evoked current (Fig. 3)", "setting": "α4β2 receptor; MCA 3 µM, ACh 100 µM, holding voltage -30 mV", "result": "strongly inhibit"}, {"measurement": "Amount of released glutamate", "setting": "[2]", "result": "2.45 ± 0.3 (c) nmol/mg protein/10min."}]}]}
